Measured values: article PMC8958510 (Journal of Medicinal Chemistry, 2022)
Values after ≈ are worked out from the molar mass of the structure shown.

Legend:
[1] = Kinetic aqueous solubility screen (light scattering); conditions: 1% DMSO / 99% PBS
Method: Aqueous solubility screen. The kinetic aqueous solubility of the target compounds was
(§1) determined at the Innopharma Drug Screening and Pharmacogenomics Platform (Santiago de
Compostela, Spain). Ten mM stock solutions of the tested compounds were serially diluted,
NEPHELOstar Plus reader (BMG LABTECH). The results were adjusted to a segmented
linear regression to obtain the maximum concentration in which the compounds were soluble.

[2] = Microsomal stability, rat liver microsomes; format: in vitro ADME
Method: (§2) Microsomal stability screen. The microsomal stability of the target compounds was
as §1
(§3) Compostela, Spain). The human, rat and mice pooled microsomes, with a protein content of 20 mg mL‒1, were purchased from Tebu-Xenotech. The compounds were incubated in a 96-well microplate at 37 °C with the microsomes in 50 mM phosphate buffer (pH = 7.4) containing as cofactors 30 mM MgCl2, 10 mM NADP, 100 mM glucose-6-phosphate and 40
(§4) Samples (75 µL) were taken from each well at 0, 10, 20, 40 and 60 min and transferred to a microplate. 4 °C Acetonitrile (75 µL) and internal standard (rolipram) were then added for inactivating the microsomes, and water with 0.5% formic acid (30 µL) was subsequently added for improving the chromatographic conditions, keeping the mixtures at 4 °C. The plate was centrifuged at 46,000 g for 30 min at 15 °C and supernatants were taken and analyzed in a UPLC-MS/MS system (UPLC QSM Waters Acquity) using reverse phase Acquity UPLC® HSST3 1.7 μm (2.1 mm × 50 mm, Waters) as the stationary phase, 0.1% formic acid in water (A) / 0.1% formic acid in acetonitrile (B) as the mobile phase, a flow of 0.8 mL min‒1, and the
(§5) The metabolic stability of the compounds was calculated from the logarithm of the remaining compound at each of the time points studied.

recombinant mouse AChE = biological target: T1, recombinant mouse AChE (Mus musculus, UniProt P21836); experiment: Mouse acetylcholinesterase inhibition, Ellman's method; format: biochemical
T1 construct: purchased Bio-Techne, Milan, Italy
T1 sequence (P21836 32-614): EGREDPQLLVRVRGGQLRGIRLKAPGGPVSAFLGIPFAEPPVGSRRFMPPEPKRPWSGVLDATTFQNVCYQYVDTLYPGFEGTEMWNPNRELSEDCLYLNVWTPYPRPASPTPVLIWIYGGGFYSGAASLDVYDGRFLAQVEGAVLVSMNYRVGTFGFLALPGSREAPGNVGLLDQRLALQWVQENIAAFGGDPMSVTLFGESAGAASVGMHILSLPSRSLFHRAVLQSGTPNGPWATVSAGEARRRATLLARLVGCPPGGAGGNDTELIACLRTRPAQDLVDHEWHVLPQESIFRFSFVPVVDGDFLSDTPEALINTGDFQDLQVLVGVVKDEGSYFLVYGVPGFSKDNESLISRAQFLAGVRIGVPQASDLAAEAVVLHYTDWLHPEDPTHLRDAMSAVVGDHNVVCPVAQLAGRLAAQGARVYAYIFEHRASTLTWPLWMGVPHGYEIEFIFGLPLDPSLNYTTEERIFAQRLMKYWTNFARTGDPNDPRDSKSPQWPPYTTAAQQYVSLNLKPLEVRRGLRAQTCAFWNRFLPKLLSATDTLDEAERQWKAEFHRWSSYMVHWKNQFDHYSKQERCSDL
Method: Human and mouse acetylcholinesterase and human butyrylcholinesterase inhibition
assay. The inhibitory activity of the target compounds toward recombinant human AChE
(Sigma-Aldrich, Milan, Italy), recombinant mouse AChE (Bio-Techne, Milan, Italy) and
human serum BChE (Sigma-Aldrich, Milan, Italy) was assessed by Ellman’s method,8 using
Stock solutions of the AChEs were prepared by
dissolving enzyme lyophilized powder (hAChE) or diluting the enzyme commercial solution
(mAChE) in 0.1 M potassium phosphate (pH 8.0) containing 0.1% Triton X-100, whereas the
stock solution of hBChE was prepared in 0.1% aq. gelatin and the stock solutions of the
compounds to be tested were made in MeOH (2-4 mM). The assay solution consisted of 0.02
unit mL‒1 of the enzyme, 340 M 5,5’-dithiobis(2-nitrobenzoic acid), and 550 M of the
substrate acetylthiocholine iodide (for AChE assay) or butyrylthiocholine iodide (for BChE
assay) in 0.1 M potassium phosphate (pH 8.0). Blank solutions containing all components
except the enzymes were prepared to account for the non-enzymatic hydrolysis of the
Prior the addition of the substrate, the assay solutions were incubated at 37 °C for 20 min.
After the addition of the substrate, cuvettes were rapidly transferred into a Jasco V-530
double beam spectrophotometer equipped with thermostated cuvette holders (37 °C), in order
for 240 s. For each tested compound, five increasing concentrations were assayed in order to
achieve inhibition percentages of 20‒80%. Each concentration was assayed in triplicate. IC50
values were calculated from the inhibition plot (% inhibition vs log[inhibitor]) and are
expressed as mean ± SEM. Each IC50 value is the average of at least two experiments, each

[3] = PAMPA-BBB assay for brain permeability
Method: PAMPA-BBB assay for brain permeability. The brain permeability (Pe) of the target
compounds was assessed by an in vitro parallel artificial membrane permeability assay for
blood‒brain barrier penetration (PAMPA-BBB assay),12 which uses a lipid extract of porcine
brain membrane as a BBB model. The assay was validated by comparing experimental and
reported Pe values of a set of fourteen commercial drugs (Table S2 of the Supporting
On the basis of this equation and the limits established by Di et al. for BBB
independent experiments, each performed in triplicate, were carried out for each compound.

[4] = biological target: PAS of Electrophorus electricus AChE (EeAChE) (Electrophorus electricus, UniProt O42275); experiment: Propidium displacement studies (PAS of AChE); format: binding; set-up: purchased Sigma-Aldrich type VI-S; conditions: mean ± SD of two independent experiments, read-out: KD (displacement of propidium from PAS)
Chain of PAS of Electrophorus electricus AChE (EeAChE) (O42275 24-633): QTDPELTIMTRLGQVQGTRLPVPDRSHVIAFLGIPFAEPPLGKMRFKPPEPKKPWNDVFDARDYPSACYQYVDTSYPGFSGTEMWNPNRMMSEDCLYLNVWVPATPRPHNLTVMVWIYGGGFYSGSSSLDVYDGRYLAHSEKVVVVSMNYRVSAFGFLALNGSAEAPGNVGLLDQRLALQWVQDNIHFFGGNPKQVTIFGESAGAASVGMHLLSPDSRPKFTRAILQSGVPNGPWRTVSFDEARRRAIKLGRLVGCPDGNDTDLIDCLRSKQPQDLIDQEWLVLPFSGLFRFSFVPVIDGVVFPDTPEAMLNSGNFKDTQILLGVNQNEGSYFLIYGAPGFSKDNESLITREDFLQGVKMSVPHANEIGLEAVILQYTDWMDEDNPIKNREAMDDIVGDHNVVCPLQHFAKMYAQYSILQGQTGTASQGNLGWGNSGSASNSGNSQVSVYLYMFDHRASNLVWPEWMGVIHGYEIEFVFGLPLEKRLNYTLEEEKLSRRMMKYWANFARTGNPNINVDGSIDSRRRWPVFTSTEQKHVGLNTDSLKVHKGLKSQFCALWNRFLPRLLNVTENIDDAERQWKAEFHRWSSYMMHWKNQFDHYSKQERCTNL
Method: Propidium Displacement Studies.
electricus AChE (EeAChE) (type VI-S, Sigma-Aldrich) was determined using the PAS-
specific ligand propidium iodide (P) (Sigma-Aldrich), following a described procedure.9
Complexation of propidium iodide and AChE leads to a shift in the excitation wavelength.9
Fluorescence intensity was monitored with a Jasco 6200 spectrofluorometer (Jasco Europe,
Italy) using a 0.5 mL quartz cuvette at rt. EeAChE (2 μM) was first incubated with 8 mM
propidium iodide in 1 mM Tris-HCl, pH 8.0 at rt.
prepared in MeOH. In the back titration experiments of the propidium‒AChE complex by
fluorescence emission was determined. KD values were obtained after processing the raw data
values are expressed as mean ± standard deviation (SD) of two independent experiments.

[5] = Microsomal stability, human liver microsomes; format: in vitro ADME
Method: as §2, §1, §3, §4, §5

recombinant mouse sEH = biological target: T2, recombinant mouse sEH (Mus musculus, UniProt P34914); conditions: read-out: msEH IC50, average of three replicates
T2 sequence (P34914 1-554): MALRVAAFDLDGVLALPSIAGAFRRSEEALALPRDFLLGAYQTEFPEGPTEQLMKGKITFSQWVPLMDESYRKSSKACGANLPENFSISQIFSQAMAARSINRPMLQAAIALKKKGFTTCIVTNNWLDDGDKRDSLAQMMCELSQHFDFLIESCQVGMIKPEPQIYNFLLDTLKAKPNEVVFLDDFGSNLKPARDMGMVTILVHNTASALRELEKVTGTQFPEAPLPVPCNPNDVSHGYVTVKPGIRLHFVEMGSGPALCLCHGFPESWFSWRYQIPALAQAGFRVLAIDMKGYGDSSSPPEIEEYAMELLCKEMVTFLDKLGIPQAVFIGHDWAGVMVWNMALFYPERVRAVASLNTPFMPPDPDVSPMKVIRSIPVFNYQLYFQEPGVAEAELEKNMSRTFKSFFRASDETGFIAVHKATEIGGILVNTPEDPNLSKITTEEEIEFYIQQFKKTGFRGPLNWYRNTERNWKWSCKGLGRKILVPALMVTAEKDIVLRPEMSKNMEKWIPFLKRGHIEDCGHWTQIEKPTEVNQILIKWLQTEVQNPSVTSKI
Method: Human and mouse soluble epoxide hydrolase inhibition assay. The inhibitory activity of
the target compounds toward human and mouse sEH was determined by a fluorescence-based
assay, using purified recombinant human or mouse sEH proteins and CMNPC as a fluorescent
substrate.6 The enzymes were incubated at 30 °C with the inhibitors ([I]final = 0.4-100,000
nM) for 5 min in 100 mM sodium phosphate buffer (200 µL, pH 7.4) containing 0.1 mg mL‒1
of BSA and 1% of DMSO. The substrate (CMNPC) was then added ([S]final = 5 µM). Activity
was assessed by measuring the appearance of the fluorescent 6-methoxynaphthaldehyde
(Molecular Devices). Results were obtained by regression analysis from a linear region of the
curve and are given as IC50 values, i.e., the concentration of the compound that reduces the
sEH activity by 50%. All measurements were performed in triplicate and the mean is

[6] = Microsomal stability, mouse liver microsomes; format: in vitro ADME
Method: as §2, §1, §3, §4, §5

O=C(Nc1ccc(OC(F)(F)F)cc1)NC1CCN(C(=O)CCCCNc2c3c(nc4cc(Cl)ccc24)CCCC3)CC1 [12c, 1-{1-{5-[(6-Chloro-1,2,3,4-tetrahydroacridin-9-yl)amino]pentanoyl}piperidin-4-yl}-3-[4-(trifluoromethoxy)phenyl]urea]
solubility at 2 h [1]: 7.5 µM (≈ 4.64 µg/mL)
% compound remaining unaltered, rat microsomes ([2]; after 10 min): 100%
% compound remaining unaltered, rat microsomes ([2]; after 20 min): 79%
% compound remaining unaltered, rat microsomes ([2]; after 40 min): 50%
microsomal CLint at 1 h, 0.05 µM ([2]; rat, liver microsomes (pooled), pH 7.4, 37 °C): 26 µL/min/mg
half-life at 1 h, 0.05 µM ([2]; rat, liver microsomes (pooled), pH 7.4, 37 °C, read-out: t1/2, rat microsomes): 26 min
remaining at 1 h, 0.05 µM ([2]; rat, liver microsomes (pooled), pH 7.4, after 1 h of incubation at 37 °C, read-out: % remaining compound, rat microsomes): 21%
mAChE potency relative to 6-chlorotacrine (recombinant mouse AChE): 5 fold
potency toward mAChE relative to hAChE (recombinant mouse AChE): 3 fold
IC50 (recombinant mouse AChE; recombinant mouse AChE, mean ± SEM, read-out: mAChE IC50): 0.00412 ± 0.00023 µM
BBB permeation class ([3]; PAMPA-BBB prediction): CNS+ (High permeation, CNS+: Pe > 5.2)
Papp ([3]; pig, PAMPA): 84 ± 7 nm/s
Kd [4]: 3.95 ± 0.35 µM
% compound remaining non-metabolized, human microsomes ([5]; after 10 min at 37 °C): 82%
% compound remaining non-metabolized, human microsomes ([5]; after 20 min at 37 °C): 74%
microsomal CLint at 1 h ([5]; human, liver microsomes (pooled), pH 7.4, 37 °C): 8 µL/min/mg
half-life at 1 h ([5]; human, liver microsomes (pooled), pH 7.4, 37 °C, read-out: t1/2, human microsomes): 91 min
remaining at 1 h ([5]; human, liver microsomes (pooled), pH 7.4, after 1 h of incubation at 37 °C, read-out: % remaining compound, human microsomes): 55%
IC50 (recombinant mouse sEH): 0.0225 µM
amount of compound, mouse liver microsomes ([6]; after 10 min): 38%
amount of compound, mouse liver microsomes ([6]; after 20 min): 4%
microsomal CLint at 1 h, 0.05 µM ([6]; mouse, liver microsomes (pooled), pH 7.4, 37 °C): 155 µL/min/mg
half-life at 1 h, 0.05 µM ([6]; mouse, liver microsomes (pooled), pH 7.4, 37 °C, read-out: t1/2, mouse microsomes): 4 min
remaining at 1 h, 0.05 µM ([6]; mouse, liver microsomes (pooled), pH 7.4, after 1 h of incubation at 37 °C, read-out: % remaining compound, mouse microsomes): 2%
